This note sets out measurements from patent US8207159B2, “Use of galanthamine for the treatment of pathological manifestations of the central nervous system based on intoxications with psychotropic substances” (priority 2001, dated 2012).

Each structure is given as a SMILES string.

In one assay the test system is rats. Briefly: Animal experiments: administration of galanthamine to rats, cognitive abilities. The format is in vivo, rat. Particulars: restoration did not occur, or occurred only considerably later, in untreated control animals. The source says: (§1) A further advantage in this connexion is in particular that better control over the addictive behaviour is made possible, so that the risk of relapse is reduced.

The subject of assay [1] is chronically dependent alcoholics. Briefly: Clinical studies on chronically dependent alcoholics, cognitive performance. The class given is in vivo, human.
Description: as §1

As to `COc1ccc2c3c1O[C@H]1C[C@@H](O)C=C[C@@]31CCN(C)C2` [galanthamine, 4a,5,9,10,11,12-hexahydro-3-methoxy-11-methyl-6-H-benzofuro-(3a,3,2-ef)-(2)-benzazepin-6-ol], the “recovery of cognitive abilities” value in the assay on rats is on record as “recovery of cognitive abilities”. For the same compound, the “cognitive performance of the subjects” value in assay [1] is listed as “general improvement in the cognitive performance”.
